pIC50: −log10 of the molar value.
Experiments:
Human HDAC6 = molecular target: T1, Human HDAC6 (Homo sapiens, UniProt Q9UBN7); assay: In vitro HDAC inhibition assay, HDAC6; format: biochemical; conditions: read-out: HDAC isoform IC50, HDAC6
T1 construct: Full length with N-terminal GST tag, MW=159 kDa; GST (N); host or cells: baculovirus expression system, Sf9 cells
T1 sequence (Q9UBN7 1-1215): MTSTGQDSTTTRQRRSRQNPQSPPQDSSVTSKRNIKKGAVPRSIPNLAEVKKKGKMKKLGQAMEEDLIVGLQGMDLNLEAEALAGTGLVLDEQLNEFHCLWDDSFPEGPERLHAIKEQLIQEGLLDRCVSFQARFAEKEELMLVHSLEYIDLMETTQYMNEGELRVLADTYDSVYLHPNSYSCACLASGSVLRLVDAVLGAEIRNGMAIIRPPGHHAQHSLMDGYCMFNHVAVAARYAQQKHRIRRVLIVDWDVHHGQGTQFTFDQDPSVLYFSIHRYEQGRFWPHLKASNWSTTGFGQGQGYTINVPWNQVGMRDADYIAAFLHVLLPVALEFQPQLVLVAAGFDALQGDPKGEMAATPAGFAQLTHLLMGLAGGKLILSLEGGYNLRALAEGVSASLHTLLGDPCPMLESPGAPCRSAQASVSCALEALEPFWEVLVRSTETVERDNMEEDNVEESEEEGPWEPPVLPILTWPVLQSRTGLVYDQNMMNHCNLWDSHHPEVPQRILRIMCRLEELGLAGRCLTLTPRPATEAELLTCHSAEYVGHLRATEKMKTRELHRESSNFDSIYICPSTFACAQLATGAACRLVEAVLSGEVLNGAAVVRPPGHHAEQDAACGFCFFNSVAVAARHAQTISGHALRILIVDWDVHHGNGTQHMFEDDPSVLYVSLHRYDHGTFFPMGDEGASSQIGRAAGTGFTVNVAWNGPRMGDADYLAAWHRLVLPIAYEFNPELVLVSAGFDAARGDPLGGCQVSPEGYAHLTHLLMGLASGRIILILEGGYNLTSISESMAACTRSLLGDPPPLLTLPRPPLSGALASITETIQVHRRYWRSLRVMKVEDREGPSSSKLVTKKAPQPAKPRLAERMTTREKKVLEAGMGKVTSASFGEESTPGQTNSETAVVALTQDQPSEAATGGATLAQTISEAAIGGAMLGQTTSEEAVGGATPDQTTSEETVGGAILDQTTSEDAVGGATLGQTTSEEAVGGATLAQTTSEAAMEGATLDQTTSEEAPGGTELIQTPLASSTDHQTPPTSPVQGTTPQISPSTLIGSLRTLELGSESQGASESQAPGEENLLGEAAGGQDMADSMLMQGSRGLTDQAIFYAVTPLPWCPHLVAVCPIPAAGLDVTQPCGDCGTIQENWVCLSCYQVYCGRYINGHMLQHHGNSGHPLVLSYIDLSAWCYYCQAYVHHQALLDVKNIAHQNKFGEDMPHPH

HDAC9 = HDAC9 (Homo sapiens, UniProt Q9UKV0); assay: HDAC isoform inhibition, HDAC9; format: biochemical
L3.6pl = assay: In vitro growth inhibition (GI), MTS cell proliferation assay (Table 5), L3.6pl; format: cell-based; conditions: Homo sapiens, 72 hours post-treatment
HDAC7 = molecular target: T2, HDAC7 (Homo sapiens, UniProt Q8WUI4); assay: HDAC isoform inhibition, HDAC7; format: biochemical
T2 sequence (Q8WUI4 1-952): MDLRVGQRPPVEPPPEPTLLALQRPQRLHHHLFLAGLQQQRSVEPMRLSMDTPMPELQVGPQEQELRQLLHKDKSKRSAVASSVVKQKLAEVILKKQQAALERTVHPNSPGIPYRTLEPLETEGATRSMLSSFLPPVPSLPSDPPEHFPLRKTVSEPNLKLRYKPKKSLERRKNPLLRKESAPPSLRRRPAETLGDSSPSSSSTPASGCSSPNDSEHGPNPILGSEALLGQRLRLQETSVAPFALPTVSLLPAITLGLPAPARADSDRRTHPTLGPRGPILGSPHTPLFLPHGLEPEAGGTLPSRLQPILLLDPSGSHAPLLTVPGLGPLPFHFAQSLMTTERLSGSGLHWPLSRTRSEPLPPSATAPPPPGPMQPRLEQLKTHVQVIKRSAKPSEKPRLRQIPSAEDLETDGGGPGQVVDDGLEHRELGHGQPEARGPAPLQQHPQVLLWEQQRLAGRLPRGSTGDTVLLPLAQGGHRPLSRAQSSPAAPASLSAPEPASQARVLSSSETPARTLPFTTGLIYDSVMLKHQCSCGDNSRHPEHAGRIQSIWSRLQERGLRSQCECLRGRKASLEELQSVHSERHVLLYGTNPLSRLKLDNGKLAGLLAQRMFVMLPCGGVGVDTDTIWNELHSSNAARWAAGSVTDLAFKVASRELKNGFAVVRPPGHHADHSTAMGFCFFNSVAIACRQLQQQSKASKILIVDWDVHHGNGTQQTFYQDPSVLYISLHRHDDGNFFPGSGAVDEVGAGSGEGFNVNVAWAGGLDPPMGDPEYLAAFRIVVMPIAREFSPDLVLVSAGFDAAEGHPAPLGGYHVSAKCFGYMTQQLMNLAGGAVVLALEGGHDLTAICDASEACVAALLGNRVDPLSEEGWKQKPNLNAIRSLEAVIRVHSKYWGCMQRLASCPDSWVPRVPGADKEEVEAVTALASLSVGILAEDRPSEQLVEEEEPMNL

HDAC5 = HDAC5 (Homo sapiens, UniProt Q9UQL6); assay: HDAC isoform inhibition, HDAC5; format: biochemical
Sequence of HDAC5 (Q9UQL6 whole entry, canonical isoform): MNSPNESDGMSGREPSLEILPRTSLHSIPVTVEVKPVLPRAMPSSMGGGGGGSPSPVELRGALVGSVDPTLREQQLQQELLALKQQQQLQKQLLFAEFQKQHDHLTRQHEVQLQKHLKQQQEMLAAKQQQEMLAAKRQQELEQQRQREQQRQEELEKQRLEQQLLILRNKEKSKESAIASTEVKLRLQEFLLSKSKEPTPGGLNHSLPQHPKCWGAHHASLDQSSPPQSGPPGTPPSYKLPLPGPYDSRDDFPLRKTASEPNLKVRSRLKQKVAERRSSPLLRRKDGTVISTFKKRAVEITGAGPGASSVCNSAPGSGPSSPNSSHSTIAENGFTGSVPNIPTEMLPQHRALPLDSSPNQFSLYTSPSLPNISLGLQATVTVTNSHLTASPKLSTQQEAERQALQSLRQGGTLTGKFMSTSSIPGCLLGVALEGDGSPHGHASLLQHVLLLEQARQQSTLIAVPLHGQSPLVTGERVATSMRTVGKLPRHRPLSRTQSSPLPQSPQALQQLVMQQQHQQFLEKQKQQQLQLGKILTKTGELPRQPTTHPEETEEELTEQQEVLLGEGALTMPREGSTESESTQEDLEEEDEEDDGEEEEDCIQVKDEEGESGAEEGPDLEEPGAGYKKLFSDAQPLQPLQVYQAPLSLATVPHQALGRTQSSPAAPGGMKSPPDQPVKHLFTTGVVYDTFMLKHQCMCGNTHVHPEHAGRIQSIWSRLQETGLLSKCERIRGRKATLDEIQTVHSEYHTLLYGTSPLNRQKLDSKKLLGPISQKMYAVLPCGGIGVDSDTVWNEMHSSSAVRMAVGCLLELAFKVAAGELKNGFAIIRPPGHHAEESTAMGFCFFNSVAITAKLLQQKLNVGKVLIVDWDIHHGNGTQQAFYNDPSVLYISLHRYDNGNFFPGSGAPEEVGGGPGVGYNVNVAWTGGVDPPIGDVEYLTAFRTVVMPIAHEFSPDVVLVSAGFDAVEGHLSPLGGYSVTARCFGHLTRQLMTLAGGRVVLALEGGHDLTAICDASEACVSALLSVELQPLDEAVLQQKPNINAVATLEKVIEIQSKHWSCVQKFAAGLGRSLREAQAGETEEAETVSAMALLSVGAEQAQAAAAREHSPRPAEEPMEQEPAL

Sequence of HDAC9 (Q9UKV0 whole entry, canonical isoform): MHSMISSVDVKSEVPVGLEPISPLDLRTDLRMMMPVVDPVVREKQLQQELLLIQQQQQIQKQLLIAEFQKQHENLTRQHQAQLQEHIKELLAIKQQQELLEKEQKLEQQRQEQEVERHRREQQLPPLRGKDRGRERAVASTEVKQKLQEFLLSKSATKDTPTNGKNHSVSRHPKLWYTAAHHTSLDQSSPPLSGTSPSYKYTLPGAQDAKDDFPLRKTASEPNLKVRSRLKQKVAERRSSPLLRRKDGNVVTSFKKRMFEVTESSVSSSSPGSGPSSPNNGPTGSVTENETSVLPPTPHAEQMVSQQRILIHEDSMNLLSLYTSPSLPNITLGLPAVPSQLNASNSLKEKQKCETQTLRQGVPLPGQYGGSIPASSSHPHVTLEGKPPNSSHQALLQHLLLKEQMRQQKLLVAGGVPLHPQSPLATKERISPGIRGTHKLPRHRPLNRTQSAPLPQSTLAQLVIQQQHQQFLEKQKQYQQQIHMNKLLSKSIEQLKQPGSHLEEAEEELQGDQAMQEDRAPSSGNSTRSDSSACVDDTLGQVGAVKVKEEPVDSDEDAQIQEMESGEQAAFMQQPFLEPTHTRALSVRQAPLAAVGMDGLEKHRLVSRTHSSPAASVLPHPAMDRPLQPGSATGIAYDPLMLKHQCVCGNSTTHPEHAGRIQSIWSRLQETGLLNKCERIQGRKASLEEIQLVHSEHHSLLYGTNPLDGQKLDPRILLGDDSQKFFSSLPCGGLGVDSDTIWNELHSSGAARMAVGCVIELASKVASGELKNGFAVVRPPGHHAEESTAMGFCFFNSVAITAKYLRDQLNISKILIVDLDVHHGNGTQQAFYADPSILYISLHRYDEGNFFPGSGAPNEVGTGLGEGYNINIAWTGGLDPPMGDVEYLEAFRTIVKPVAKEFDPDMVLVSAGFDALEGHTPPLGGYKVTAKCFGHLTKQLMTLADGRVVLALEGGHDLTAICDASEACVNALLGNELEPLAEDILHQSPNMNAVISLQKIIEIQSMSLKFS

pIC50 (Human HDAC6): 8.22 | pIC50 (HDAC9): 4.89 | Selectivity for HDAC6 (fold) over HDAC9 (HDAC9): 2130 fold | pIC50 (HDAC7): 3.98 | Selectivity for HDAC6 (fold) over HDAC7 (HDAC7): 17500 fold | pIC50 (HDAC5): 4.46 | Selectivity for HDAC6 (fold) over HDAC5 (HDAC5): 5750 fold
Compound: CC(C)(C)OC(=O)Nc1ccc(-c2cc(C(=O)NCCc3cc(C(=O)NO)no3)no2)cc1 [Compound 6, (4-{3-[2-(3-Hydroxycarbamoyl-isoxazol-5-yl)-ethylcarbamoyl]-isoxazol-5-yl}-phenyl)-carbamic acid tert-butyl ester]
GI50 (L3.6pl): > 50 µM
